# Assay results reported in US20250041387A1, “POLYPEPTIDE SEQUENCE OF KDM6B AND APPLICATION OF KDM6B IN REGULATING AND CONTROLLING FUNCTION OF MESENCHYMAL STEM CELL” (BEIJING STOMATOLOGICAL HOSPITAL, CAPITAL MEDICAL UNIVERSITY, priority 2021, published 2025).
# Key:
# WDR5 synthetic protein = WDR5 synthetic protein (Homo sapiens, UniProt P61964); assay: Polypeptide microarray of KDM6B incubated with biotin-labeled WDR5; assay type: binding; settings: FIG. 3A, B; positive = optical density more than 30%
# Description: • (1) Synthesis of polypeptide chip: A polypeptide chip was designed by overlapping and synthesized according to the sequence of KDM6B protein, with a total of two arrays. • (2) Synthesis of polypeptide microarray: A matrix membrane was activated, and placed on a fully automated polypeptide chip synthesizer. A Fmoc-amino acid solution was automatically transferred to a specific position on the activated membrane according to the set procedure, to react with the membrane. The membrane was immersed sequentially into the blocking solution I and II to block side chains, and washed with dimethyl formamide (DMF). The membrane was placed in a deprotection solution to remove the Fmoc protective group at the amino-terminal, then washed with DMF, and dried with ethanol. The above steps were repeated until all polypeptide microarrays were completely synthesized. After the synthesis was completed, the protective groups of the side chains were removed with specific organic reagents. […] The control group was incubated with the blocking solution. • (6) Streptavidin-HRP incubation: The reaction reagent Streptavidin-HRP (High Sensitivity Streptavidin-HRP (prod #21133)) was diluted with the blocking solution in an ratio of 1:10000, and then the polypeptide microarray chip was incubated with 5 ml of the diluted Streptavidin-HRP under shaking at room temperature for 2 hours, and washed. • (7) Color development: ECL luminescence reagent was added, and digital imaging was performed on a Chempchemi digital imager. • (8) Scan of polypeptide microarray chip and data analysis of color spot: The colored polypeptide microarray chip was imaged at 425 nm using the Chempchemi Imaging System with 200 s exposure. The optical density of colored spots was analyzed using TotalLab image analysis software, and the optical density of each colored spot was calculated using the “Spot Edge Average” algorithm in the software, with the optical density of the surrounding background of each colored spot as a reference. […]
# [1] = system: bone marrow mesenchymal stem cells; assay: ALP activity of BMSCs after osteogenic induction; assay type: cell-based, human; settings: 3 days of induction in osteogenic culture medium, FIG. 4D
# Description: • (1) Osteogenic culture medium was purchased from Invitrogen, USA. • (2) Quantification of alkaline phosphatase (ALP) activity • 1) After 3 days of osteogenic induction, the culture medium was discarded, and the cells were washed with PBS twice. • 2) The cells were added with 500 μL of lysis buffer, and incubated at 37° C. for 15 minutes. • 3) The cells were scraped, transferred into a 1.5 mL EP tube, and centrifuged at 14000 rpm at 4° C. for 10 minutes. The supernatant was transferred into a new EP tube to measure the protein concentration, and the procedure was the same as that in Western blot. • 4) The capsule from the alkaline phosphatase kit (Stock substrate Sol.) was dissolved with 5 mL of distilled water under vigorous shaking, and mixed well. • 5) 50 μL of ALP buffer was added to 50 μL of Stock substrate Sol to obtain a mixture. 100 μL of the mixture was added to each well in a 96-well plate, then added with 10 μL of sample, and mixed well. A blank well without sample added was set for zero adjustment. • 6) The plate was incubated at 37° C. for 15 minutes, and the OD value was measured at 405 nm.
# (§1) Result of ALP activity was calculated according to Y/incubation time/protein concentration. • (3) Alizarin red staining • 1) After two weeks of osteogenic induction, the culture medium was discarded. The cells were washed three times with PBS pre-cooled at 4° C., and fixed with 70% ethanol at 4° C. for 1 hour. • 2) The cells were washed 2 times with double distilled water, and stained with 40 mM alizarin red solution (pH 4.2) at room temperature for 10 minutes. The staining was observed by naked eyes. • 3) The cells were washed 3 times with double-distilled water. • (4) Determination of Ca^2+ concentration
# [2] = system: stem cells from apical papilla; assay: Alizarin red staining and calcium quantification in SCAPs; assay type: cell-based, human; settings: SCAPs treated with polypeptide, 2 weeks of odontogenic induction, FIG. 8F, G
# Description: as §1
# To quantitatively determine the concentration of calcium, the cells were added with 10% cetyl pyridinium chloride for dissolution for 30 minutes at room temperature. The OD value was measured at 562 nm using a spectrophotometer, and the calcium ion concentration of the samples was calculated according to the standard curve of calcium ion concentration, with the total protein concentration as an internal reference.
# [3] = system: telomerase reverse transcriptase; assay: ELISA assay of telomerase reverse transcriptase in BMSCs; assay type: cell-based, human; settings: FIG. 4A
# Description: • (1) Pre-detection preparation: A standard curve was calculated and plotted using a standard concentration gradient of 400 ng/mL, 200 ng/ml, 100 ng/ml, 50 ng/mL, 25 ng/ml, 12.5 ng/mL, 6.25 ng/mL, and 0 ng/mL. • (2) 100 μL of the standards and samples were added to each well of a 96-well plate. The plate was covered with a provided sealing film, and incubated at 37° C. for 2 hours. The name of the sample was noted on the surface of the sealing film. • (3) The sample in each well was discarded and spin-dried without washing. • (4) 100 μL of Biotin-antibody (1×) was added to each well. The plate was covered with a sealing film, and incubated at […] for 1 hour. If Biotin-antibody (1×) appeared cloudy, Biotin-antibody was warmed to room temperature and stirred gently until clear. • (5) The sample in each well was discarded. Each well was added with 200 μL of Wash Buffer using a multichannel pipette and left to stand for 2 minutes for washing. This process was repeated twice for a total of three times of washing. Complete removal of liquid at each step was critical for good performance. After the last time of washing, the Wash Buffer was discarded, and the 96-well plate was turned upside down and dried with a clean paper. • (6) 100 μL of HRP-avidin (1×) was added to each well. The 96-well microtiter plate was covered with a new sealing film and incubated at 37° C. for 1 hour. • (7) The process of discarding samples and washing in […] was repeated 5 times. • (8) 90 μL of TMB Substrate was added to each well. The plate was incubated in the dark at 37° C. for 15-30 minutes. 50 μL of Stop Solution was added to each well, and the plate was gently taped to mix solution evenly. • (9) The optical density of each well was detected at 450 nm within 5 min using a microtiter plate reader.
Substance,binding degree to WDR5 on polypeptide microarray (optical density of spots) (WDR5 synthetic protein),ALP activity [1],ALP activity ([1]; listed as 102-peptide),"mineralization capacity, quantification of calcium ion [2]","mineralization capacity, quantification of calcium ion ([2]; listed as 102 peptide)",expression of telomerase reverse transcriptase (ELISA) [3],ALP activity ([1]; listed as 114-peptide),"mineralization capacity, quantification of calcium ion ([2]; listed as 114 peptide)",expression of telomerase reverse transcriptase (ELISA) ([3]; listed as 114 peptide)
FITC-(Acp)-KEKSRRVLGNLDLQSYGRKKRRQRRR [peptide 102],higher binding degree,promoted,4.218,significantly higher,1.637,0.02236,–,–,–
FITC-(Acp)-ADLTISHCAADVVRAYGRKKRRQRRR [peptide 114],higher binding degree,promoted,–,significantly higher,–,promote the expression,4.621,1.619,0.03888
